Columns and labels:
RPTEC/hTERT cells [1] = experiment: Caspase 3/7 activity in RPTEC cells; assay type: cell-based, human; details: cisplatin 50 μM, 48 hours
Experimental: (§1) Cells were cultured in DMEM/F12 medium (Dulbecco's modified Eagle's medium and Ham's F12 medium, Thermo Fisher) supplemented with 1% penicillin/streptomycin, 5 pmol/L triiodo-L-thyronine, 10 ng/ml recombinant human epidermal growth factor, 3.5 μg/mL ascorbic acid, 5.0 μg/mL human transferrin, 5.0 μg/mL insulin, 25 ng/mL prostaglandin E1, 25 ng/ml hydrocortisone, 8.65 ng/mL sodium selenite, 0.1 mg/mL G418 and 1.2 g/L sodium bicarbonate (Sigma). Lewis lung carcinoma mouse LLC1 cells were cultured in DMEM glutamax (Thermo Fisher) containing 10% fetal calf serum and 1% penicillin/streptomycin. Cells were cultured at 37° C. in a humidified atmosphere of 5% CO2.
(§2) Apoptosis was assessed in RPTEC/hTERT and LLC1 cell lysates using the caspase-Glo 3/7 assay (Promega) according to manufacturer's recommendations.

H1975 cells [2] = experiment: Immunoblot quantification in H1975 cells; assay type: cell-based; details: 20 μM cisplatin, 10 nM KW6002, 24 hours
Experimental: (§3) FIG. 7. […] Caspase 3/-7 activity (n=3 independent experiments) (A) and the number of γH2AX nuclear foci (n=36-63 nuclei/group) (B) were determined. […] Results are expressed as the mean±SEM (n=3 independent experiments). (E) Tail moment was assessed by comet assay. A total of 50 cells per condition were analyzed. *** P<0.001; 1-way ANOVA followed by Tukey's post hoc test. […] (I) KW6002 increased yH2AX expression in tumors from mice of the LLC1 syngeneic model. Quantification of nuclear yH2AX expression.
Cells and tissues were homogenized using RIPA buffer (Sigma) supplemented with protease and phosphatase inhibitors (Pierce). 10 μg of total proteins were heated for 10 min at 70° C. and loaded on NuPAGE Novex gels (Thermo Fisher Scientific). After transfer of proteins to nitrocellulose membranes, membranes were blocked with 5% milk in TBS-tween followed by incubation with anti-cleaved caspase 3 (1/1000; #9661, Cell Signaling) or anti-cleaved PARP1 (1/1000; #5625, Cell Signaling) primary antibodies. Visualization of protein was achieved by using horseradish peroxidase-coupled secondary antibodies (1/2000; #7074, Cell signaling). Detection signal was performed by using the ECL select chemiluminescent kit (GE Healthcare) and Image Quant LAS 4000 (GE Healthcare). Data were analyzed with Image J. Membranes were probed with anti-GAPDH (glyceraldehyde-3-phosphate deshydrogenase) antibody as normalizer (G9545, Sigma).

LLC1 cells = experiment: Caspase 3/7 activity in LLC1 cells; assay type: cell-based, mouse
Experimental: as §3, §1, §2

kidney mouse sections = experiment: Red Oil staining of kidney mouse sections; assay type: in vivo; details: Red Oil staining, kidney samples
Experimental: (§4) FIG. 6. KW6002 alleviates the cisplatin-induced nephrotoxicity associated with apoptosis, lipid metabolism, and oxidative stress. (A) Tail moment assessed by comet assay; 50 cells/condition were analyzed. (B and C) KW6002 attenuates cisplatin-induced renal lipid accumulation, assessed by Red Oil staining. […] Results are the mean±SEM (n=6-9 mice/group). (F-H) KW6002 attenuated cisplatin-induced oxidative stress in RPTEC/hTERT1 cells. (F and G) Gene expression of Nrf2 (F) and HO1 (G). […] Results are the mean±SEM (n=3 independent experiments).
(§5) 10 μm frozen kidney mouse sections were fixed with ethanol (60%) then incubated for 15 min with Oil Red O Solution (Fisher Biotech) dissolved in isopropanol. After several washes with ddH2O, samples were incubated 3 min with hematoxylin. Lipid droplets are stained in red whereas nuclei appeared blue. […] RPTEC/hTERT cells were fixed with ethanol (60%) then incubated for 15 min with Oil Red O Solution. The cells were washed three times with ddH2O and incubated 3 min with hematoxylin. Coverslips were rinsed with H2O before mounting on microscope slides using glycerol gelatin aqueous slide mounting medium (Sigma). Quantifications were performed blindly using ImageJ software. […] The resulting red color images were quantified using a custom threshold (0.173 for RPTEC/hTERT cells and 0.140 for kidney stainings).

RPTEC/hTERT cells [3] = experiment: Cell viability assay (CellTiter-Glo); assay type: cell-based, human; details: cisplatin 50 μM, KW-6002 0.5-12.8 μM, 48 hours
Experimental: as §1
Viability was assessed using the CellTiter-Glo® Luminescent Cell Viability Assay (Promega) according to manufacturer's recommendations.

RPTEC/hTERT cells [4] = experiment: Red Oil staining of RPTEC/hTERT cells; assay type: cell-based, human; details: cisplatin 50 μM, 25 μM KW-6002, 48 hours
Experimental: as §4, §5

H1975 cells [5] = experiment: γH2AX nuclear foci in H1975 cells; assay type: cell-based; details: 50 μM cisplatin, 10 nM KW6002, 6 hours, FIG. 7F
Experimental: as §3

H1975 cells [6] = experiment: Comet assay in H1975 cells; assay type: cell-based; details: FIG. 7E
Experimental: as §3
Treated cells were suspended (60,000 cells/mL) in low-melt agarose (1613111, Bio-Rad) 0.5% in PBS at 42° C. The suspension was then immediately spread on a comet slide (4250-200-03, R&D Systems). Agarose was allowed to cool down for 20 minutes at 4° C. Then, cell membranes were permeabilized with a lysis solution (2.5M NaCl, 100 mM EDTA, 10 mM Tris-HCl, 1% Triton X-100 [pH 10]) at 4° C. for 1 hour. […] The images were analyzed using an ImageJ in-home macro, in which the head (the nucleus) and tail (the DNA that migrated) of the comet were delimited to get the fluorescence intensity of the head, the fluorescence intensity of the tail, and the length of the tail. The calculation of tail moments was done using the following formula: (length of the comet tail×fluorescence intensity of the tail)/total fluorescence intensity (head+tail).

Structure (SMILES): CCn1c(=O)c2c(nc(/C=C/c3ccc(OC)c(OC)c3)n2C)n(CC)c1=O [KW-6002, 8-[(E)-2-(3,4-dimethoxyphenyl)vinyl]-1,3-diethyl-7-methyl-3,7-dihydro-1H-purine-2,6-dione]
- cisplatin-induced apoptosis (RPTEC/hTERT cells [1]): inhibited cisplatin-induced apoptosis
- cisplatin-induced apoptosis (RPTEC/hTERT cells [1]; listed as KW6002): inhibiting cisplatin-induced apoptosis
- apoptosis: caspase 3 (H1975 cells [2]; FIG. 7C): did not impede the antitumoral effect of cisplatin
- apoptosis: PARP (H1975 cells [2]; FIG. 7D): even potentiated the efficacy of cisplatin
- cell cycle: cyclin D1 (H1975 cells [2]; FIG. 7G): did not impede the antitumoral effect of cisplatin
- cell cycle: PCNA (H1975 cells [2]; FIG. 7H): even potentiated the efficacy of cisplatin
- apoptosis: caspase 3/-7 activity (LLC1 cells; 2 μM cisplatin, 10 Nm KW6002, 24 hours, FIG. 7A): even potentiated the efficacy of cisplatin
- LLC1 sensitivity to cisplatin, including apoptosis and/or DNA damage (LLC1 cells; in vitro, data not shown): likely increases LLC1 sensitivity to cisplatin
- cisplatin-induced accumulation of lipid droplets in kidney (kidney mouse sections): significantly reduced
- cisplatin-induced cell death (RPTEC/hTERT cells [3]): reduced cisplatin-induced cell death in a concentration-dependent manner
- cisplatin-induced cell death (RPTEC/hTERT cells [3]; listed as KW6002): concentration-dependently reduced cisplatin-induced cell death
- lipid accumulation induced by cisplatin (RPTEC/hTERT cells [4]): significantly reduced
- DNA damage: yH2AX nuclear foci (H1975 cells [5]): increased number of H2AX+ cells
- DNA damage: tail moment (H1975 cells [6]): did not impede the antitumoral effect of cisplatin

— patent publication US20250161312A1, “A METHOD FOR THE TREATMENT OF CHEMOTHERAPEUTIC DRUG-INDUCED NEPHROTOXICITY” (INSTITUT NATIONAL DE LA SANTÉ ET DE LA RECHERCHE MÉDICALE, priority 2022, published 2025)
